Source: publication PMC10112504, “Novel 4-thiophenyl-pyrazole, pyridine, and pyrimidine derivatives as potential antitumor candidates targeting both EGFR and VEGFR-2; design, synthesis, biological evaluations, and in silico studies” (RSC Advances, 2023)
Like-named read-outs stand apart in the source and are kept apart here.

What was measured:
[1] = tested on: A. flavus; assay: Antifungal activity, inhibition zone approach; type: cell-based, Aspergillus flavus; conditions: for A. flavus Diameter of inhibition zone (mm): Fungi; for A. flavus % Activity index: ketoconazole = 100; for antimicrobial activity with A. flavus, in words: authors' grading of Table 2 values, key not given
[2] = tested on: HepG-2; assay: Anti-proliferative activity, SRB colorimetric assay; type: cell-based; conditions: for IC50: HepG-2 cancer cell line, SRB assay, read-out: Cell lines (IC50 μM) HepG-2
Procedure: (§1) The antitumor activities of the newly synthesized derivatives against two cancer cell lines (HepG-2 and MCF-7). Both cell lines were purchased from ATCC (American Type Culture Collection) via the holding company for biological products and vaccines (VACSERA, Cairo, Egypt). The cytotoxicity was assessed using the SRB colorimetric assay.[47]

[3] = tested on: E. coli; assay: Antibacterial activity, inhibition zone approach; type: cell-based, Escherichia coli; conditions: for E. coli Diameter of inhibition zone (mm): Gram-negative bacteria; for E. coli % Activity index: gentamicin = 100; for antimicrobial activity with E. coli, in words: authors' grading of Table 2 values, key not given
[4] = tested on: P. aeuroginosa; assay: Antibacterial activity, inhibition zone approach; type: cell-based, Pseudomonas aeuroginosa; conditions: for P. aeuroginosa Diameter of inhibition zone (mm): Gram-negative bacteria; for P. aeuroginosa % Activity index: gentamicin = 100; for antimicrobial activity with P. aeuroginosa, in words: authors' grading of Table 2 values, key not given
[5] = tested on: C. albicans; assay: Antifungal activity, inhibition zone approach; type: cell-based, Candida albicans; conditions: for C. albicans Diameter of inhibition zone (mm): Fungi; for C. albicans % Activity index: ketoconazole = 100; for antimicrobial activity with C. albicans, in words: authors' grading of Table 2 values, key not given
[6] = tested on: MCF-7; assay: Anti-proliferative activity, SRB colorimetric assay; type: cell-based; conditions: for IC50: Homo sapiens, MCF7, MCF-7 cancer cell line, SRB assay, read-out: Cell lines (IC50 μM) MCF-7
Procedure: as §1

[7] = tested on: S. aureus; assay: Antibacterial activity, inhibition zone approach; type: cell-based, Staphylococcus aureus; conditions: for S. aureus Diameter of inhibition zone (mm): Gram-positive bacteria; for S. aureus % Activity index: gentamicin = 100; for antimicrobial activity with S. aureus, in words: authors' grading of Table 2 values, key not given
[8] = tested on: B. subtilis; assay: Antibacterial activity, inhibition zone approach; type: cell-based, Bacillus subtilis; conditions: for B. subtilis Diameter of inhibition zone (mm): Gram-positive bacteria; for B. subtilis % Activity index: gentamicin = 100; for antimicrobial activity with B. subtilis, in words: authors' grading of Table 2 values, key not given
[9] = authors' grading of Table 1 values, key not given

Structure (SMILES)	A. flavus Diameter of inhibition zone (mm) [1] [mm]	A. flavus % Activity index [1] [%]	IC50 ([2]; Homo sapiens, HepG2) [µM]	E. coli Diameter of inhibition zone (mm) [3] [mm]	P. aeuroginosa Diameter of inhibition zone (mm) [4] [mm]	P. aeuroginosa % Activity index [4] [%]	melting point [°C]	C. albicans Diameter of inhibition zone (mm) [5] [mm]	C. albicans % Activity index [5] [%]	IC50 [6] [µM]	S. aureus Diameter of inhibition zone (mm) [7] [mm]	S. aureus % Activity index [7] [%]	B. subtilis Diameter of inhibition zone (mm) [8] [mm]	B. subtilis % Activity index [8] [%]	further results
CC(=O)c1c(-c2cccs2)cc(-c2ccc(O)cc2)[nH]c1=O [3a, 3-Acetyl-6-(4-hydroxyphenyl)-4-(thiophen-2-yl)pyridin-2(1H)-one]	10	38.5	53.2 ± 3.1	4	6	31.6	220	11	39.3	48.4 ± 2.7	5	27.8	9	40.9	anti-proliferative activity against HepG-2, in words [2, 9]: moderate; E. coli % Activity index [3]: 19.0%; anti-proliferative activity against MCF-7, in words [6, 9]: moderate
Oc1ccc(C2=NN(C(=S)Nc3ccccc3)C(c3cccs3)C2)cc1 (stereo not shown) [14a, 3-(4-hydroxyphenyl)-N-phenyl-5-(thiophen-2-yl)-4,5-dihydro-1H-pyrazole-1-carbothioamide]							245 to 247								
Nc1nc(-c2ccc(O)cc2)cc(-c2cccs2)n1 [11a, 4-(2-amino-6-(thiophen-2-yl)pyrimidin-4-yl)phenol]	7		52.9 ± 2.9	6	11			11		61.1 ± 3.4	7		10		antimicrobial activity with A. flavus, in words [1]: weak; antimicrobial activity with E. coli, in words [3]: very strong; antimicrobial activity with P. aeuroginosa, in words [4]: moderate; antimicrobial activity with C. albicans, in words [5]: moderate; antimicrobial activity with S. aureus, in words [7]: moderate; antimicrobial activity with B. subtilis, in words [8]: moderate
Oc1ccc(-c2cc(-c3cccs3)nc(/N=C/c3ccccc3O)n2)cc1 [13a, (E)-2-(((4-(4-hydroxyphenyl)-6-(thiophen-2-yl)pyrimidin-2-yl)imino)methyl)phenol]	16	61.5	34.8 ± 2.3	13	15	78.9	133 to 135	21	75.0	42.8 ± 2.6	14	77.8	18	81.8	antimicrobial activity with A. flavus, in words [1]: very strong; antimicrobial activity with E. coli, in words [3]: very strong; E. coli % Activity index [3]: 61.9%; antimicrobial activity with P. aeuroginosa, in words [4]: very strong; antimicrobial activity with C. albicans, in words [5]: very strong; antimicrobial activity with S. aureus, in words [7]: very strong; antimicrobial activity with B. subtilis, in words [8]: very strong
CNC(C)C1CCC(N)C(OC2C(N)CC(N)C(OC3OCC(C)(O)C(NC)C3O)C2O)O1 (stereo not shown) [Gentamicin, reference compound]				21	19	100					18	100	22	100	E. coli % Activity index [3]: 100%
CC(=O)N1CCN(c2ccc(OCC3COC(Cn4ccnc4)(c4ccc(Cl)cc4Cl)O3)cc2)CC1 (stereo not shown) [Ketoconazole, reference compound]	26	100						28	100						
Clc1ccc(C2=NN(c3ccccc3)C(c3cccs3)C2)cc1Cl (stereo not shown) [9b, 3-(3,4-dichlorophenyl)-1-phenyl-5-(thiophen-2-yl)-4,5-dihydro-1H-pyrazole]	3	11.5	48.1 ± 2.7				130	8	28.6	67.3 ± 3.7			6	27.3	
CC(=O)N1N=C(c2ccc(Cl)c(Cl)c2)CC1c1cccs1 (stereo not shown) [8b, 1-(3-(3,4-dichlorophenyl)-5-(thiophen-2-yl)-4,5-dihydro-1H-pyrazol-1-yl)ethan-1-one]	5	19.2	74.3 ± 3.5		4	21.0	160	9	32.1	72.6 ± 3.9	3	16.7	7	31.8	
O=C(/C=C/c1cccs1)c1ccc(O)cc1 [1a, (E)-1-(4-hydroxyphenyl)-3-(thiophen-2-yl)prop-2-en-1-one]			87.6 ± 4.2					3	10.7	82.5 ± 4.2					
O=C(/C=C/c1cccs1)c1ccc(Cl)c(Cl)c1 [1b, (E)-1-(3,4-dichlorophenyl)-3-(thiophen-2-yl)prop-2-en-1-one]			84.2 ± 4.2				85			> 100					
N#Cc1c(-c2cccs2)cc(-c2ccc(Cl)c(Cl)c2)nc1N [2b, 2-Amino-6-(3,4-dichlorophenyl)-4-(thiophen-2-yl)nicotinonitrile]	10		59.5 ± 3.1	8	11			17		55.5 ± 3.2	9		14		antimicrobial activity with A. flavus, in words [1]: moderate; antimicrobial activity with E. coli, in words [3]: moderate; antimicrobial activity with P. aeuroginosa, in words [4]: strong; antimicrobial activity with C. albicans, in words [5]: strong; antimicrobial activity with S. aureus, in words [7]: moderate; antimicrobial activity with B. subtilis, in words [8]: strong
COc1cccc2c1C(=O)c1c(O)c3c(c(O)c1C2=O)C[C@@](O)(C(=O)CO)C[C@@H]3O[C@H]1C[C@H](N)[C@H](O)[C@H](C)O1 [DOX, reference compound]															IC50 [2]: 4.5 ± 0.2 µM
Oc1ccc(-c2cc(-c3cccs3)n(-c3nc4nc5ccccc5nc4s3)n2)cc1 [12a, 4-(1-(thiazolo[4,5-b]quinoxalin-2-yl)-5-(thiophen-2-yl)-1H-pyrazol-3-yl)phenol]			74.7 ± 3.9		3	15.8	250 to 252	6	21.4	65 ± 3.6			5	22.7	
